Laboratory results: patent publication US8575091B1, “Amylin analogues and pharmaceutical compositions thereof” (Novo Nordisk A/S, priority 2012, dated 2013)
Read-outs that look alike come from different tables or passages of the source. Numbered stars: 1 amine (or outer) side, 2 acyl side, 3 side chain; on linkers, the order of the positions; unused ones are H or OH. Bridge positions count the residues as written; N and C are the ends. Side chains are listed from the residue outwards. Peptide text beside a SMILES is read from it. * marks the point of attachment. C20 diacid = O=C(O)CCCCCCCCCCCCCCCCCCC(=O)*; γGlu = O=C(O)[C@H](CCC(=O)[*:2])N[*:1]

Assays:
[1] = molecular target: T1, human calcitonin receptor (Homo sapiens, UniProt P30988); test: Assay (II)a functional assay, human calcitonin receptor (CRE luciferase, BHK cells);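 also: luminescence from a CRE-driven luciferase reporter, read by single photon counting after cells were exposed to test samples for 3 h at 37 °C under 5% CO2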; assay type: cell-based; settings: read-out: hCTR funct. EC50
T1 construct: expressed in transfected cells
T1 sequence (P30988 25-474): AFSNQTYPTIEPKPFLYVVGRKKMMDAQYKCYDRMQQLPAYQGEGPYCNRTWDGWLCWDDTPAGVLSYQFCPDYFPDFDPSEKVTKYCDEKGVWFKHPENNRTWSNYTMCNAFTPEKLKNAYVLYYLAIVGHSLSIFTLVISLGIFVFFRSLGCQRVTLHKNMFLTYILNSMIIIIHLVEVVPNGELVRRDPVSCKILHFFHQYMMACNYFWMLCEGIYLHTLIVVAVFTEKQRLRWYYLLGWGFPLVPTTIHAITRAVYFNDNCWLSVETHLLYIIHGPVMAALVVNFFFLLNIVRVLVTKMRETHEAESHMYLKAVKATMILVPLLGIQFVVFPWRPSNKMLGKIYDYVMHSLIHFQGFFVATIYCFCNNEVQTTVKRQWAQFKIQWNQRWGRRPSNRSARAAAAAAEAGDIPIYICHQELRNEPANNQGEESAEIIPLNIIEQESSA
Method: Assay (II)—Functional Assays
Consequently, transcription is activated by promoters containing multiple copies of the cAMP response element (CRE).
The cell line was further transfected with RAMP-3, using standard methods.
After incubation overnight at 37° C. and 5% CO2, the growth medium was replaced by 50 μl/well assay medium (DMEM (without phenol red), Glutamax™, 10% FBS, and 10 mM Hepes, pH 7.4). Further, 50 μl/well of standard or sample in assay buffer were added. After 3 hours incubation at 37° C. and 5% CO2, the assay medium with standard or sample were removed and replaced by 100 μl/well PBS. Further, 100 μl/well LucLite™ was added. The plates were sealed and incubated at room temperature for 30 minutes. Finally, luminescence was measured on a TopCounter (Packard) in SPC (single photon counting) mode.

human amylin receptor = molecular target: T2, human amylin receptor (Homo sapiens, UniProt O60896+P30988); test: Assay (V) binding to the human amylin receptor (SPA, 125I-rat amylin); settings: for IC50: human amylin receptor membranes, SPA, read-out: hAmylin-R bind IC50
T2 construct: expressed in transfected cells
T2 sequence (P30988 25-474): T1 sequence (P30988 25-474)
T2 sequence (O60896 24-148 partner): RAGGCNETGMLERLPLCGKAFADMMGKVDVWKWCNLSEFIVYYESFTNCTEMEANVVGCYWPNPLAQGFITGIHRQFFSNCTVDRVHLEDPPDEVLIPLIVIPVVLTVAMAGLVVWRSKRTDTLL
Method in brief: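 IC50, taken as receptor affinity, came from one-site binding competition analysis of scintillation proximity counts. Amylin 3(a)/CRE-luc cell membranes (35 ng/μL final) were mixed with SPA beads (0.05 mg/well) in 50 mM Hepes pH 7.4 containing CaCl2, MgCl2, 0.1% OA and 0.02% Tween20.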

[2] = molecular target: T3, human amylin receptor (amylin 3(a) receptor: human calcitonin receptor + RAMP-3) (Homo sapiens, UniProt O60896+P30988); test: Assay (II)a functional assay, human amylin receptor (CRE luciferase, BHK cells); assay type: cell-based; settings: for EC50: read-out: hAmylin-R funct. EC50
T3 construct: expressed in transfected cells
T3 sequence (P30988 25-474): T1 sequence (P30988 25-474)
T3 sequence (O60896 24-148 partner): T2 sequence (O60896 24-148 partner)

[3] = molecular target: T1, human calcitonin receptor; test: Assay (VII) binding to the human calcitonin receptor (SPA, 125I-Calcitonin); settings: read-out: hCTR bind IC50;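 also: cell membranes coupled to SPA beads, competitive displacement read by scintillation counting, IC50 derived from a one-site competition fit as a measure of receptor affinity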
rat amylin receptor = molecular target: T4, rat amylin receptor (Rattus norvegicus, UniProt P32214+Q9JJ73); test: Assay (VI) binding to the rat amylin receptor; settings: rCTR bind IC50 divided by rAmylin-R bind IC50
T4 construct: expressed in transfected cells; host or cells: BHK tk'ts 13 (transient, FuGENE 6), membranes
T4 sequence (P32214 25-479 isoform P32214-2 limits assumed): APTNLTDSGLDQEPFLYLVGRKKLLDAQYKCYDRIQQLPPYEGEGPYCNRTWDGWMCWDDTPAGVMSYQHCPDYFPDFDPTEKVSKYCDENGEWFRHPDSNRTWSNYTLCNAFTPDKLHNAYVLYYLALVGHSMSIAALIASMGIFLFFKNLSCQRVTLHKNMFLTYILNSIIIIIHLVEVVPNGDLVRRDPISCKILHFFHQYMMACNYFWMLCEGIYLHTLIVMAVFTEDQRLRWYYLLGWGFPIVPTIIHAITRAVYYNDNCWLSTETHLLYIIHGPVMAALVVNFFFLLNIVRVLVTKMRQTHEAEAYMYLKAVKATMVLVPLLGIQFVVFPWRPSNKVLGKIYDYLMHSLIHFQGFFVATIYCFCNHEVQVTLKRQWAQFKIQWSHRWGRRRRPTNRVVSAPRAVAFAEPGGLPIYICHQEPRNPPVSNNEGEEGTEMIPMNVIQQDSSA
T4 sequence (Q9JJ73 23-147 partner): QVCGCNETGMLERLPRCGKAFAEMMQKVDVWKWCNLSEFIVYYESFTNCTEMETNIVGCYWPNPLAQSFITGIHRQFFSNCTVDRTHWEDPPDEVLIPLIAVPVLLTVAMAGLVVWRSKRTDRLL
Method: Assay (VI)—Determination of the Binding to the Rat Amylin Receptor
The assay was performed as described above (Assay (V)—Determination of binding to the human amylin receptor) with the exception that we used membranes prepared from BHK tk'ts 13 cells that were transiently transfected with the rat calcitonin receptor rat RAMP 3 at an equimolar ratio […]. The BHK tk'ts 13 cells were transiently transfected with rat calcitonin receptor using FuGENE® 6 (Roche), according to the manufacturer's recommendations. Cells were grown in DMEM with 10% FBS and 1% Pen/Strep. Approximately 48 hours after transfection, the cells were harvested and membranes were prepared.

[4] = Table 6, human functional selectivity (hCTR EC50 / hAmylin-R EC50)
[5] = functional assay, human amylin receptor
[6] = Table 6a, human functional selectivity (hCTR EC50 / hAmylin-R EC50), at least 5
[7] = Table 6j, hCTR funct. EC50 / hAmylin-R funct. EC50
[8] = Table 6k, hCTR funct. EC50 / hAmylin-R funct. EC50

| Structure (SMILES) | EC50 [1] [nM] | IC50 (human amylin receptor) [nM] | Ratio hCT/hAmylin binding (human amylin receptor; human binding ratio, included for comparison) | Ratio hCT/hAmylin funct. [2, 4] | EC50 [2, 5] [nM] | IC50 [3] [nM] | Ratio rCT/rAmylin binding (rat amylin receptor) | Ratio hCT/hAmylin funct. [2, 6] | Ratio hCT/hAmylin funct. [2, 7] | EC50 ([2]; Table 6j, human amylin receptor functional) [nM] | Ratio hCT/hAmylin funct. [2, 8] | Ratio rCT/rAmylin binding (rat amylin receptor; Table 7b) | Ratio rCT/rAmylin binding (rat amylin receptor; Table 7c) | Ratio hCT/hAmylin funct. ([2]; Table 6i, hCTR funct. EC50 / hAmylin-R funct. EC50) | EC50 ([2]; Table 6i, human amylin receptor functional) [nM] |
| --- | --- | --- | --- | --- | --- | --- | --- | --- | --- | --- | --- | --- | --- | --- | --- |
| CC[C@H](C)[C@H](NC(=O)[C@H](C)NC(=O)CNC(=O)[C@H](Cc1ccccc1)NC(=O)[C@H](CC(N)=O)NC(=O)[C@@H]1CCCN1C(=O)[C@H](CO)NC(=O)[C@H](CO)NC(=O)[C@H](Cc1c[nH]cn1)NC(=O)[C@H](CCCNC(=N)N)NC(=O)[C@H](CC(C)C)NC(=O)[C@H](Cc1ccccc1)NC(=O)[C@H](CCC(=O)O)NC(=O)[C@H](C)NC(=O)[C@H](CC(C)C)NC(=O)[C@H](CCCNC(=N)N)NC(=O)[C@H](CCC(N)=O)NC(=O)[C@@H](NC(=O)[C@H](C)NC(=O)[C@@H]1CSSC[C@H](NC(=O)[C@@H](N)CCCCNC(=O)CC[C@H](NC(=O)CCCCCCCCCCCCCCCCCCC(=O)O)C(=O)O)C(=O)N[C@@H](CC(N)=O)C(=O)N[C@@H]([C@@H](C)O)C(=O)N[C@@H](C)C(=O)N[C@@H]([C@@H](C)O)C(=O)N1)[C@@H](C)O)C(=O)N1CCC[C@H]1C(=O)N[C@@H](CO)C(=O)N[C@@H](CO)C(=O)N[C@H](C(=O)N[C@@H](CC(N)=O)C(=O)N[C@H](C(=O)NCC(=O)N1CCC[C@H]1C(=O)N[C@@H](CC(N)=O)C(=O)N[C@H](C(=O)N1CCC[C@H]1C(N)=O)[C@@H](C)O)C(C)C)[C@@H](C)O [Example 114] (H-K([γGlu-C20 diacid])CNTATCATQRLAEFLRHSSPNFGAIPSSTNVGPNTP-NH2; disulfide 2-7) | 0.09 | 0.214 | 0.5 | 0.9 | 0.105 | 0.117 | 1.1 | – | – | – | – | – | – | – | – |
| CC[C@H](C)[C@H](NC(=O)[C@H](C)NC(=O)CNC(=O)[C@H](Cc1ccccc1)NC(=O)[C@H](CC(N)=O)NC(=O)[C@@H]1CCCN1C(=O)[C@H](CO)NC(=O)[C@H](CO)NC(=O)[C@H](Cc1c[nH]cn1)NC(=O)[C@H](CCCNC(=N)N)NC(=O)[C@H](CC(C)C)NC(=O)[C@H](Cc1ccccc1)NC(=O)[C@H](CC(N)=O)NC(=O)[C@H](C)NC(=O)[C@H](CC(C)C)NC(=O)[C@H](CCCNC(=N)N)NC(=O)[C@H](CCC(N)=O)NC(=O)[C@@H](NC(=O)[C@H](C)NC(=O)[C@@H]1CSSC[C@H](NC(=O)[C@H](CCCCN)NC(=O)CC[C@H](NC(=O)CCCCCCCCCCCCCCCCCCC(=O)O)C(=O)O)C(=O)N[C@@H](CC(N)=O)C(=O)N[C@@H]([C@@H](C)O)C(=O)N[C@@H](C)C(=O)N[C@@H]([C@@H](C)O)C(=O)N1)[C@@H](C)O)C(=O)N1CCC[C@H]1C(=O)N[C@@H](CO)C(=O)N[C@@H](CO)C(=O)N[C@H](C(=O)N[C@@H](CC(N)=O)C(=O)N[C@H](C(=O)NCC(=O)N[C@@H](CO)C(=O)N[C@@H](CCCCN)C(=O)N[C@H](C(=O)N[C@@H](Cc1ccc(O)cc1)C(N)=O)[C@@H](C)O)C(C)C)[C@@H](C)O [Example 34] | 2.62 | 1.14 | – | 8.4 | – | 73.4 | 52.0 | 8.4 | 8.4 | 0.313 | 8.4 | 52.0 | 52.0 | – | – |
| CC[C@H](C)[C@H](NC(=O)[C@H](C)NC(=O)CNC(=O)[C@H](Cc1ccccc1)NC(=O)[C@H](CC(N)=O)NC(=O)[C@@H]1CCCN1C(=O)[C@H](CO)NC(=O)[C@H](CO)NC(=O)[C@H](Cc1c[nH]cn1)NC(=O)[C@H](CCCNC(=N)N)NC(=O)[C@H](CC(C)C)NC(=O)[C@H](Cc1ccccc1)NC(=O)[C@H](CCC(=O)O)NC(=O)[C@H](C)NC(=O)[C@H](CC(C)C)NC(=O)[C@H](CCCNC(=N)N)NC(=O)[C@H](CCC(N)=O)NC(=O)[C@@H](NC(=O)[C@H](C)NC(=O)[C@@H]1CSSC[C@H](NC(=O)[C@H](CCCCN)NC(=O)CC[C@H](NC(=O)CCCCCCCCCCCCCCCCCCC(=O)O)C(=O)O)C(=O)N[C@@H](CC(N)=O)C(=O)N[C@@H]([C@@H](C)O)C(=O)N[C@@H](C)C(=O)N[C@@H]([C@@H](C)O)C(=O)N1)[C@@H](C)O)C(=O)N1CCC[C@H]1C(=O)N[C@@H](CO)C(=O)N[C@@H](CO)C(=O)N[C@H](C(=O)N[C@@H](CC(N)=O)C(=O)N[C@H](C(=O)NCC(=O)N1CCC[C@H]1C(=O)N[C@@H](CC(N)=O)C(=O)N[C@H](C(=O)N[C@@H](Cc1ccc(O)cc1)C(N)=O)[C@@H](C)O)C(C)C)[C@@H](C)O [Example 32] ({C20 diacid-γGlu}-KCNTATCATQRLAEFLRHSSPNFGAIPSSTNVGPNTY-NH2; disulfide 2-7) | 0.327 | 0.1 | – | 6.6 | – | 1.09 | 34.0 | 6.6 | 6.6 | – | 6.6 | 34.0 | – | 6.6 | 0.05 |
| CC[C@H](C)[C@H](NC(=O)[C@H](C)NC(=O)CNC(=O)[C@H](Cc1ccccc1)NC(=O)[C@H](CC(N)=O)NC(=O)[C@@H]1CCCN1C(=O)[C@H](CO)NC(=O)[C@H](CO)NC(=O)[C@H](Cc1c[nH]cn1)NC(=O)[C@H](CCCNC(=N)N)NC(=O)[C@H](CC(C)C)NC(=O)[C@H](Cc1ccccc1)NC(=O)[C@H](CC(N)=O)NC(=O)[C@H](C)NC(=O)[C@H](CC(C)C)NC(=O)[C@H](CCCNC(=N)N)NC(=O)[C@H](CCC(N)=O)NC(=O)[C@@H](NC(=O)[C@H](C)NC(=O)[C@@H]1CSSC[C@H](NC(=O)[C@H](CCCCN)NC(=O)CC[C@H](NC(=O)CCCCCCCCCCCCCCCCCCC(=O)O)C(=O)O)C(=O)N[C@@H](CC(N)=O)C(=O)N[C@@H]([C@@H](C)O)C(=O)N[C@@H](C)C(=O)N[C@@H]([C@@H](C)O)C(=O)N1)[C@@H](C)O)C(=O)N1CCC[C@H]1C(=O)N[C@@H](CO)C(=O)N[C@@H](CO)C(=O)N[C@H](C(=O)N[C@@H](CC(N)=O)C(=O)N[C@H](C(=O)NCC(=O)N1CCC[C@H]1C(=O)N[C@@H](CCC(=O)O)C(=O)N[C@H](C(=O)N[C@@H](Cc1ccc(O)cc1)C(N)=O)[C@@H](C)O)C(C)C)[C@@H](C)O [Example 29] ({C20 diacid-γGlu}-KCNTATCATQRLANFLRHSSPNFGAIPSSTNVGPETY-NH2; disulfide 2-7) | 0.857 | 0.577 | – | 8.7 | 0.099 | 8.01 | 67.0 | 8.7 | 8.7 | – | 8.7 | 67.0 | – | – | – |
